Results as given in US12678514B2, “Algae-based microrobot for drug delivery” (priority 2023, dated 2026).
In brackets after ≈: the same amount, converted by molar mass.

Key:
[1] = tested on: P. aeruginosa; assay: In vitro antibacterial activity (MIC, minimal bactericidal concentration); type: cell-based, Pseudomonas aeruginosa; settings: CFU enumeration
[2] = tested on: B16-F10-Luc2 melanoma lung metastasis; assay: In vivo efficacy in a lung metastasis model; design: species or system C57BL/6 mice
Description: This model was established by intravenously injecting 1×10^5 B16-F10-Luc2 cells through the tail vein of C57BL/6 mice. The treatment regimen consisted of four 75-μg DOX doses given every other day, with the first dose administered one day after the tumor challenge. […] We also quantified the overall lung metastasis burden based on the bioluminescence intensity in the lungs (FIG. 16d). […] Additionally, we monitored for changes in body weight during the entire treatment period (FIG. 16g).
In vivo efficacy in a lung metastasis model. […] The mice received treatment with free DOX, NP(DOX) and algae-NP(DOX)-robot through intratracheal instillation on days 1, 3, 5 and 7 after tumor cell inoculation. Mice without treatment were used as controls. To monitor tumor growth, on days 12, 16, 20, 24 and 28 after tumor cell inoculation, the mice were intraperitoneally administered 200 μl of 5 mg ml^−1 D-luciferin (Syd Labs) in DPBS (Gibco). Bioluminescence signals were detected using a PerkinElmer Xenogen IVIS 200 system. The body weight and survival of each mouse were also monitored throughout the study.

[3] = In vivo safety evaluation of algae-NP(DOX)-robot; design: species or system C57BL/6 mice
Description: In vivo toxicity assessment of algae-NP(DOX)-robot. Finally, the toxicity profile of the algae-NP(DOX)-robot was assessed. Healthy mice were subjected to intratracheal administration using one of three different treatments: algae-NP(DOX)-robot, free DOX, and NP(DOX). Each mouse received a total of four 75-μg DOX doses given every other day. A blood count and a comprehensive metabolic panel were performed one day after the final injection to assess the effects of these treatments.
In vivo safety evaluation. Healthy female C57BL/6 mice were intratracheally administered with free DOX, NP(DOX) and algae-NP(DOX)-robot every other day for a total of four injections. Mice without treatment were used as controls. At 24 h following the last treatment, blood samples were collected via submandibular puncture into Microvette 100 EDTA K3E tubes (Sarstedt) for blood cell quantification. To collect serum for comprehensive blood chemistry analysis, blood samples were obtained without any anticoagulant, placed at room temperature for 30 min, and centrifuged at 3000 g for 10 min. Both the blood cell quantification and blood chemistry analyses were performed by the Animal Care Program Diagnostic Services Laboratory at UCSD. For histological analysis, the heart, liver, spleen, lungs and kidneys were excised and fixed in phosphate-buffered 10% formalin (Fisher Chemical), followed by sectioning and hematoxylin and eosin staining. These histological procedures were conducted by the Moores Cancer Center Tissue Technology Shared Resource.

O=C(O)c1cn(C2CC2)c2cc(N3CCNCC3)c(F)cc2c1=O [free Cip, ciprofloxacin]
minimal bactericidal concentration [1]: 0.125 µg/mL (≈ 0.377 µM)

COc1cccc2c1C(=O)c1c(O)c3c(c(O)c1C2=O)C[C@@](O)(C(=O)CO)C[C@@H]3O[C@H]1C[C@H](N)[C@H](O)[C@H](C)O1 [free DOX, doxorubicin]
median survival time ([2]; four 75-μg DOX doses intratracheal): 27 days | body weight during treatment ([2]; mouse, in vivo): pronounced decline in body weight | liver and kidney biomarkers (ALB, ALP, ALT, BUN, TBIL, CRE) ([3]; four 75-μg DOX doses, one day after final dose): no abnormalities | histology of heart, liver, spleen, lungs and kidneys ([3]; mouse, in vivo): no observable damage | other biomarkers (CA, GLU, PHOS, K+, Na+, TP) ([3]; mouse, in vivo): within their normal ranges | white blood cells, red blood cells and platelets ([3]; mouse, in vivo): elevated platelet levels
